From patent US7763624B2, “Substituted pyrazolo[3,4-d]pyrimidines as ACK-1 and LCK inhibitors” (Amgen Inc., priority 2005, dated 2010)
Like-named read-outs stand apart in the source and are kept apart here.

Experiments:
C8 cells = assay: ACK1 Cell Based Assay (survival under low serum, Cytotox One); conditions: read-out: ACK1 Cell-based IC50
Method: ACK1 Cell Based Assay The ACK1 cell based assay is designed to find inhibitors of ACK1 kinase activity which would be prime candidates for the development of anticancer drugs. […] After 20 to 24 h incubation at 37° C. and 5% CO2, cell viability is determined using the Cytotox One kit (Promega) according to the manufacturer's instructions.

LCK = molecular target: T1, LCK (Homo sapiens, UniProt P06239); assay: LCK-Homogeneous Time Resolved Fluorescent (HTRF) Kinase Assay; format: biochemical
T1 construct: 15 μL of LCK KD GST (225-509) for a final volume of 40 μL; GST
T1 sequence (P06239 225-509): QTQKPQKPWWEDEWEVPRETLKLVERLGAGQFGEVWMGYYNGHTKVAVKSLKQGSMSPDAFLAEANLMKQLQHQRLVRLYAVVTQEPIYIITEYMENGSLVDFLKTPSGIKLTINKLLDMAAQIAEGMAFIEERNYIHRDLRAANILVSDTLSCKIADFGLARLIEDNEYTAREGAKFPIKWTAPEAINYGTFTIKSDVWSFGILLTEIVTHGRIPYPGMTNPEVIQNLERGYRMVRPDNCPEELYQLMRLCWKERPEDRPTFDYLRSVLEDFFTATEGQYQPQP
Method: LCK-Homogeneous Time Resolved Fluorescent (HTRF) Kinase Assay
The LCK HTRF assay begins with LCK in the presence of ATP phosphorylating the biotinylated peptide Gastrin. The reaction incubates for 90 min. To quench the assay detection reagents are added which both stop the reaction by diluting out the enzyme and chelating the metals due to the presence of EDTA. Once the detection reagents are added the assay incubates for 30 min to allow for equilibration of the detection reagents.
Buffer conditions are as follows: 50 mM HEPES pH 7.5, 50 mM NaCl, 20 mM MgCl2, 5 mM MnCl2, 2 mM DTT, 0.05% BSA.
The assay is quenched and stopped with 160 μL of a detection reagent. Detection reagents are as follows: Buffer made of 50 mM Tris, pH 7.5, 100 mM NaCl, 3 mM EDTA, 0.05% BSA, 0.1% Tween20.
The assay plate is read in either a Discovery or a RubyStar.

ACK1 = molecular target: T2, ACK1 (Homo sapiens, UniProt Q07912); assay: ACK1 Enzymatic Assay (PGT/autophosphorylation ELISA); format: biochemical
T2 construct: a fusion of an N-terminal (His)6 Tag with amino acids 117 to 489 of ACK1; (His)6 (N); made in house; host or cells: baculovirus infected Hi-5 insect cells
T2 sequence (Q07912 117-489): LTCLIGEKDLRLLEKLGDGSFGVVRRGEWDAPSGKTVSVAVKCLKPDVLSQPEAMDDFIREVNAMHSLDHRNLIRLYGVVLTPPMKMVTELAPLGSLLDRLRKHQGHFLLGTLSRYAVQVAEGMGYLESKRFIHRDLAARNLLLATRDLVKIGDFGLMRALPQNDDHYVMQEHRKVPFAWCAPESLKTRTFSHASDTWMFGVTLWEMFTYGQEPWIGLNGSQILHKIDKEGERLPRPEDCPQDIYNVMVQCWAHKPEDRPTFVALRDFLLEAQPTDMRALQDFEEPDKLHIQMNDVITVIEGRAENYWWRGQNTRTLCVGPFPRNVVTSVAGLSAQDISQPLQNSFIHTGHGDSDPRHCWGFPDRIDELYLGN
Method: IC50 values of compounds of the invention may be assessed as follows. The ACK1 kinase assay utilizes a protein expressed in baculovirus infected Hi-5 cells (a fusion of an N-terminal (His)6 Tag with amino acids 117 to 489 of ACK1) purified by affinity chromatography on a Ni-NTA column. The substrate for the reaction is ACK1 itself (autophosphorylation) and poly-Glutamic acid-Tyrosine (PGT (4:1), Sigma catalog #PO275). The PGT is coated to Nunc 96 well plates at 80 μg/mL overnight at 4° C. The morning after coating, the plates are washed twice, and […] reaction buffer (10 mM Hepes, pH 7.6; 20 mM MgCl2; 75 mM NaCl, 0.125% TWEEN20 (polyoxyethylene sorbitan monolaurate); 1 mM DTT) with 5 μM ATP are added to each well. Test compounds are added in […] DMSO, and the reaction is started by addition of […] kinase in assay buffer. The reaction proceeds for 2 h at room temperature. Next, the plates are washed four times, and the level of tyrosine phosphorylation in a given well is quantified by standard ELISA assay utilizing a phosphotyrosine antibody (PY20, Pierce).

[1] = ACK1-dependent C8 cells, 0.125% FCS, 20 to 24 h

Row | Compound | Ki (LCK) [µM] | Ki (ACK1) [µM] | IC50 (C8 cells; [1]) [µM] | IC50 (C8 cells) [µM]
1 | Cc1cccc(C)c1Nc1nn(CCCN2CCCCC2)c2nc(Nc3ccccc3)ncc12 [Compound 48, N^3-(2,6-Dimethyl-phenyl)-N^6-phenyl-1-(3-piperidin-1-yl-propyl)-1H-pyrazolo[3,4-d]pyrimidine-3,6-diamine] | < 0.01 | > 0.1 | > 0.1 | –
2 | COC(C)(C)CCn1nc(Nc2c(Cl)cccc2Cl)c2ccc(Nc3ccc(N4CCN(C(=O)OCC5c6ccccc6-c6ccccc65)CC4)cc3)cc21 [Compound 81, (9H-Fluoren-9-yl)methyl 4-(4-(3-(2,6-dichlorophenylamino)-1-(3-methoxy-3-methyl-butyl)-1H-indazol-6-ylamino)phenyl)piperazine-1-carboxylate] | < 0.01 | 0.01 to 0.1 | – | > 0.1
3 | Ethyl-2-(3-(2,6-dimethylphenylamino)-6-(phenylamino)-1H-indazole-1-yl)acetate [Compound 64] | < 0.01 | 0.01 to 0.1 | > 0.1 | –
4 | C=CCCn1nc(Nc2c(C)cccc2C)c2cnc(Nc3ccccc3)nc21 [Compound 33, 1-(but-3-enyl)-N^3-(2,6-dimethylphenyl)-N^6-phenyl-1H-pyrazolo[3,4-d]pyrimidine-3,6-diamine] | < 0.01 | 0.01 to 0.1 | > 0.1 | –
5 | COC(C)(C)CCn1nc(Nc2c(C)cc(F)cc2C)c2cnc(Nc3ccccc3)nc21 [Compound 78, N^3-(4-Fluoro-2,6-dimethyl-phenyl)-1-(3-methoxy-3-methyl-butyl)-N^6-phenyl-1H-pyrazolo[3,4-d]pyrimidine-3,6-diamine] | < 0.01 | 0.01 to 0.1 | – | > 0.1
6 | CCN(CC)CCCn1nc(Nc2c(C)cccc2C)c2cnc(Nc3ccccc3)nc21 [Compound 40, 1-(3-(diethylamino)propyl)-N^3-(2,6-dimethylphenyl)-N^6-phenyl-1H-pyrazolo[3,4-d]pyrimidine-3,6-diamine] | < 0.01 | 0.01 to 0.1 | > 0.1 | –
7 | CNCCCn1nc(Nc2c(C)cccc2C)c2cnc(Nc3ccccc3)nc21 [Compound 39, N^3-(2,6-dimethylphenyl)-1-(3-(methylamino)propyl)-N^6-phenyl-1H-pyrazolo[3,4-d]pyrimidine-3,6-diamine] | < 0.01 | 0.01 to 0.1 | > 0.1 | –
8 | COC(C)(C)CCn1nc(Nc2c(C)cc(C)cc2C)c2cnc(Nc3ccc(N4CCN(C)CC4)cc3)nc21 [Compound 77] | < 0.01 | 0.01 to 0.1 | – | 0.01 to 0.1
9 | COC(C)(C)CCn1nc(Nc2ccccc2)c2cnc(Nc3ccc(N4CCN(C)CC4)cc3)nc21 [Compound 75] | 0.01 to 0.1 | > 0.1 | – | > 0.1
10 | (R)—N^3-(2,6-Dimethylphenyl)-1-(3-(2-(methoxymethyl)pyrrolidin-1-yl)propyl)-N^6-phenyl-1H-indazole-3,6-diamine [Compound 66] | < 0.01 | > 0.1 | > 0.1 | –
11 | Cc1cccc(C)c1Nc1nn(CCC2COCO2)c2nc(Nc3ccccc3)ncc12 (centres unmarked) [Compound 35, 1-(2-(1,3-dioxolan-4-yl)ethyl)-N^3-(2,6-dimethylphenyl)-N^6-phenyl-1H-pyrazolo[3,4-d]pyrimidine-3,6-diamine] | < 0.01 | 0.01 to 0.1 | > 0.1 | –
12 | Cc1cccc(C)c1Nc1nn(CCCN(C)C)c2nc(Nc3ccccc3)ncc12 [Compound 38, 1-(3-(Dimethylamino)propyl)-N^3-(2,6-dimethylphenyl)-N^6-phenyl-1H-pyrazolo[3,4-d]pyrimidine-3,6-diamine] | < 0.01 | 0.01 to 0.1 | 0.01 to 0.1 | –
13 | N^3-(2,6-dichlorophenyl)-1-(3-methoxy-3-methylbutyl)-N^6-[4-(4-methyl-piperazin-1-yl)-phenyl]-1H-indazole-3,6-diamine [Compound 80] | < 0.01 | < 0.01 | 0.01 to 0.1 | –
14 | Cc1cccc(C)c1Nc1nn(CCC(O)CN(C)C)c2nc(Nc3ccccc3)ncc12 (centres unmarked) [Compound 43, 1-(dimethylamino)-4-(3-(2,6-dimethylphenylamino)-6-(phenylamino)-1H-pyrazolo[3,4-d]pyrimidin-1-yl)butan-2-ol] | < 0.01 | 0.01 to 0.1 | > 0.1 | –
15 | CNc1ncc2c(Nc3c(Cl)cccc3Cl)nn(CCC(C)(C)OC)c2n1 [Compound 83, N^3-(2,6-dichlorophenyl)-1-(3-methoxy-3-methylbutyl)-N^6-methyl-1H-pyrazolo[3,4-d]pyrimidine-3,6-diamine] | < 0.01 | > 0.1 | – | –
16 | CNc1ncc2c(Nc3c(Cl)cccc3Cl)nn(CCC(C)(C)OC)c2n1 [Compound 90, N^3-(2,6-dichlorophenyl)-1-(3-methoxy-3-methylbutyl)-N^5-methyl-1H-pyrazolo[3,4-d]pyrimidine-3,6-diamine] | – | – | > 0.1 | –

Now from value to compound, other results behind:

Row | Ki (LCK) [µM] | Ki (ACK1) [µM] | Compound | IC50 (C8 cells; [1]) [µM] | IC50 (C8 cells) [µM]
17 | 0.01 to 0.1 | 0.01 to 0.1 | COC(C)(C)CCn1nc(Nc2c(C)cccc2C)c2cnc(Nc3ccc(OCCCN4CCCCC4)c(F)c3)nc21 [Compound 57] | 0.01 to 0.1 | –
18 | < 0.01 | < 0.01 | CN(C)CCCn1nc(Nc2c(Cl)cccc2Cl)c2cnc(Nc3ccccc3)nc21 [Compound 89, N^3-(2,6-Dichlorophenyl)-1-(3-(dimethylamino)propyl)-N^6-phenyl-1H-pyrazolo[3,4-d]pyrimidine-3,6-diamine] | 0.01 to 0.1 | –
19 | < 0.01 | < 0.01 | Cc1cccc(C)c1Nc1nn(CC2CCOCC2)c2nc(Nc3ccc(N4CCNCC4)cc3)ncc12 [Compound 61] | < 0.01 | –
20 | < 0.01 | 0.01 to 0.1 | Clc1cccc(Cl)c1Nc1nn(CCC2CCNCC2)c2nc(Nc3ccccc3)ncc12 [Compound 94, N^3-(2,6-dichlorophenyl)-N^6-phenyl-1-(2-(piperidin-4-yl)ethyl)-1H-pyrazolo[3,4-d]pyrimidine-3,6-diamine] | > 0.1 | –
21 | < 0.01 | 0.01 to 0.1 | Cc1cccc(C)c1Nc1nn(CCCN2CCCCC2)c2nc(Nc3ccc(N4CCN(C)CC4)cc3)ncc12 [Compound 50, N^3-(2,6-Dimethyl-phenyl)-N^6-[4-(4-methyl-piperazin-1-yl)-phenyl]-1-(3-piperidin-1-yl-propyl)-1H-pyrazolo[3,4-d]pyrimidine-3,6-diamine] | 0.01 to 0.1 | –
22 | < 0.01 | 0.01 to 0.1 | COCCOc1ccc(Nc2ncc3c(Nc4c(C)cccc4C)nn(CCN4CCOCC4)c3n2)cc1 [Compound 52, N^3-(2,6-Dimethyl-phenyl)-N^6-[4-(2-methoxy-ethoxy)-phenyl]-1-(2-morpholin-4-yl-ethyl)-1H-pyrazolo[3,4-d]pyrimidine-3,6-diamine] | > 0.1 | –
23 | < 0.01 | 0.01 to 0.1 | 2-(3-(2,6-dimethylphenylamino)-6-(phenylamino)-1H-indazol-1-yl)acetic acid [Compound 69] | > 0.1 | –
24 | < 0.01 | > 0.1 | 2-(3-(2,6-dimethylphenylamino)-6-(phenylamino)-1H-indazol-1-yl)-1-(piperazin-1-yl)ethanone [Compound 71] | > 0.1 | –
25 | < 0.01 | – | COC(C)(C)CCn1nc(Nc2c(C)cccc2C)c2cnc(Nc3ccc(N4CCNCC4)cc3)nc21 [Compound 56, N^3-(2,6-Dimethyl-phenyl)-1-(3-methoxy-3-methylbutyl)-N^6-(4-piperazin-1-yl-phenyl)-1H-pyrazolo[3,4-d]pyrimidine-3,6-diamine] | < 0.01 | –
26 | < 0.01 | 0.01 to 0.1 | C=CCCn1nc(Nc2c(Cl)cccc2Cl)c2cnc(Nc3ccccc3)nc21 [Compound 87, 1-(But-3-enyl)-N^3-(2,6-dichlorophenyl)-N^6-phenyl-1H-pyrazolo[3,4-d]pyrimidine-3,6-diamine] | > 0.1 | –
27 | < 0.01 | < 0.01 | Cc1cccc(C)c1Nc1nn(CC2CCOCC2)c2nc(Nc3ccc(OCCCN4CCCCC4)c(F)c3)ncc12 [Compound 62] | 0.01 to 0.1 | –
28 | < 0.01 | < 0.01 | COC(C)(C)CCn1nc(Nc2c(C)cccc2C)c2ccc(Nc3ccc(N4CC(C)NC(C)C4)cc3)cc21 (centres unmarked) [Compound 60, N^3-(2,6-Dimethylphenyl)-1-N^6-(4-(3,5-dimethylpiperazin-1-yl)phenyl)-1-(3-methoxy-3-methylbutyl)-1H-indazole-3,6-diamine] | 0.01 to 0.1 | –
